What was measured:
Assay type in all cases: in vivo
daphnids (Daphnia magna) [1] = assay: Measurement of body length of daphnids; details: for Body Length (mm), Average: daphnids bred 4 days with substance, Arg-IPQ 80 mg/L, Leu-IPQ 80 mg/L, ECGC 1 mg/L, carnitine 2 mg/L, control 2.37 mm; for body length as compared with the control (Comparative Example 1), in words: daphnids bred 4 days with substance in breeding water
daphnids (Daphnia magna) [2] = assay: Measurement of fat mass of daphnids by Nile red fluorescence (lipid reduction promotion test); details: for Body Fat Mass vs Comparative Example 1 (%), Average: Nile red fluorescence intensity, Comparative Example 1 (no IPQ) = 100, 5 daphnids, 4 days after addition to breeding water, H-IPQ 50 μM or 200 μM, Arg-IPQ 80 mg/L, Leu-IPQ 80 mg/L, ECGC 1 mg/L, carnitine 2 mg/L; for body fat mass as compared with the control (Comparative Example 1), in words: daphnids bred 4 days with substance in breeding water
Description: In the present examples, […] (scientific name: Daphnia magna) were used in a lipid reduction promotion test. As chlorella (scientific name: Chlorella vulgaris) used as a feed for the […], a product of […] Center LLC was used. Specifically, parent […] bred in a water tank at 22° C. under a day cycle of an 8/16-hour light/dark cycle. The chlorella used as the feed was supplied in an amount of 8×10^7 on Monday, Wednesday, and Friday. Breeding water held in the water tank was exchanged at a frequency of once a week. Under these breeding conditions, child […] born from the parent […] used in the following examples. 10 child […] bred in 500 mL of mineral water (at 22° C.) under a day cycle of an 8/16-hour light/dark cycle. […] 10 child […] bred in 500 mL of mineral water (at 22° C.) under a day cycle of an 8/16-hour light/dark cycle. […] 10 child […] bred in 500 mL of mineral water (at 22° C.) under a day cycle of an 8/16-hour light/dark cycle. […] 10 child […] bred in 500 mL of mineral water (at 22° C.) under a day cycle of an 8/16-hour light/dark cycle. […] 10 child […] bred in 500 mL of mineral water (at 22° C.) under a day cycle of an 8/16-hour light/dark cycle. […] 10 child […] bred in 500 mL of mineral water (at 22° C.) under a day cycle of an 8/16-hour light/dark cycle. […] The fat mass was measured in accordance with Non Patent Literature 4. […] Thereafter, the […] washed with water, and taken out. Water was added thereto in an amount of 300 μL per […], and the resultant was ground by applying ultrasonic waves for 15 minutes. The thus obtained ground liquid was centrifuged to collect a supernatant. The resultant was measured for a fluorescence intensity through 485 nm excitation/535 nm detection using a plate reader. This measurement operation was performed on 5 […].

daphnids (Daphnia magna) [3] = assay: Caloric restriction equivalent amount from correlation between amount of feed and fat mass; details: calculated from fat mass (fluorescence intensity) with feed/fat mass regression line; Comparative Example 1 = 0
Source text: Then, the logarithm of the amount of the feed and the fat mass (fluorescence intensity) obtained after the breeding were plotted as illustrated in FIG. 2 (n=5). When an approximate straight line was drawn on the plots, the approximate straight line was represented by the following equation, and the correlation coefficient was R=0.996. [formula] [formula] [formula] This equation of the approximate straight line can be regarded as a relational expression between the logarithm of the amount of the feed, namely, calorie intake, and the fat mass (fluorescence intensity) after the breeding.

daphnids (Daphnia magna) [4] = assay: Evaluation of movement capability of daphnids (video analysis of moving distance); details: for moving distance for 30 seconds, Daphnid 1: individual Daphnid 1, control 20.01 cm; for moving distance for 30 seconds, Daphnid 2: individual Daphnid 2, control 22.67 cm; for moving distance for 30 seconds, Daphnid 3: individual Daphnid 3, control 18.62 cm; for amount of exercise improved (times vs control): moving distance relative to control daphnids; for moving distance for 30 seconds, Average ± Standard Deviation: three daphnids, control 20.46 ± 2.06 cm
Description: The daphnids bred under condition of no IPQ described in Comparative Example 1 (control), and the daphnids bred in the presence of H-IPQ, Arg-IPQ, and Leu-IPQ respectively described in Examples 1 to 3 were used. 20 mL of mineral water was put in each of four 100 mm-glass petri dishes, into each of which one daphnid bred in Comparative Example 1 and Examples 1 to 3 was transferred. These petri dishes were placed to be adjacent to one another, and the movement for 1 minute of the daphnids was recorded. This operation was repeated three times using different individuals. Then, Kinovea video analysis software was used to analyze a moving distance for 30 seconds of each daphnid.
It is noted that the daphnids were in a state of always moving in the test, which is regarded as a state of exercise with an intensity of 3 METs or more in terms of human exercise intensity.

Row | SMILES | Body Length (mm), Average (daphnids (Daphnia magna) [1]) [mm] | Body Fat Mass vs Comparative Example 1 (%), Average (daphnids (Daphnia magna) [2]) [%] | body fat mass as compared with the control (Comparative Example 1), in words (daphnids (Daphnia magna) [2]) | Caloric Restriction Equivalent Amount (0 meaning no caloric restriction) (daphnids (Daphnia magna) [3]) [%] | body length as compared with the control (Comparative Example 1), in words (daphnids (Daphnia magna) [1]) | moving distance for 30 seconds, Daphnid 1 (daphnids (Daphnia magna) [4]) [cm] | moving distance for 30 seconds, Daphnid 2 (daphnids (Daphnia magna) [4]) [cm] | moving distance for 30 seconds, Daphnid 3 (daphnids (Daphnia magna) [4]) [cm] | amount of exercise improved (times vs control) (daphnids (Daphnia magna) [4]) | moving distance for 30 seconds, Average ± Standard Deviation (daphnids (Daphnia magna) [4]) [cm]
1 | O=C(O[C@@H]1Cc2c(O)cc(O)cc2O[C@@H]1c1cc(O)c(O)c(O)c1)c1cc(O)c(O)c(O)c1 [Comparative Example 2, Epigallocatechin Gallate, reference compound] | 2.43 | 102.0 | neither increased not reduced | −7 | – | – | – | – | – | –
2 | C[N+](C)(C)CC(O)CC(=O)[O-] (stereo not shown) [Comparative Example 3, carnitine, reference compound] | 2.82 | 133.8 | increased | −231 | – | – | – | – | – | –
3 | O=C([O-])c1cc2c(=O)c3ncn4c(C(=O)[O-])cc(C(=O)[O-])c(c2[nH]1)c34.[Na+].[Na+].[Na+] [Example 1, glycine residue IPQ trisodium] | – | 60.3 | reduced | 73 | not grown to be very large | 24.23 | 21.43 | 27.85 | about 1.2 times | 24.50 ± 3.22
4 | N=C(N)NCCCc1nc2c(=O)c3cc(C(=O)O)[nH]c3c3c(C(=O)[O-])cc(C(=O)[O-])n1c23.[Na+].[Na+] [Example 2, Arginine Residue IPQ Disodium] | 2.64 | 79.7 | reduced | 45 | grown to be larger | 25.33 | 30.35 | 30.47 | 1.4 times | 28.72 ± 2.93
5 | CC(C)Cc1nc2c(=O)c3cc(C(=O)O)[nH]c3c3c(C(=O)O)cc(C(=O)O)n1c23 [Example 3, leucine residue IPQ] | 2.52 | 69.9 | reduced | 62 | grown to be larger | 26.78 | 21.56 | 20.53 | 1.1 times | 22.96 ± 3.35

Source: patent US20240207250A1, “AGENT FOR PROMOTING LIPID REDUCTION” (MITSUBISHI GAS CHEMICAL COMPANY, INC., priority 2021, published 2024)
